Here are results for 27 compounds from patent publication US20230047816A1 (priority 2018, published 2023).

The structures appear in SMILES notation. Bounds are passed on as bounds.

The assay has as its target Recombinant full length human PFKFB3 (Homo sapiens, UniProt Q16875). Nature of the assay: PFKFB3 kinase activity assay (ADP production, ADP-Glo). (In general: In ADP-Glo the light output rises with the ADP produced.)

Sequence of Recombinant full length human PFKFB3 (Q16875 whole entry): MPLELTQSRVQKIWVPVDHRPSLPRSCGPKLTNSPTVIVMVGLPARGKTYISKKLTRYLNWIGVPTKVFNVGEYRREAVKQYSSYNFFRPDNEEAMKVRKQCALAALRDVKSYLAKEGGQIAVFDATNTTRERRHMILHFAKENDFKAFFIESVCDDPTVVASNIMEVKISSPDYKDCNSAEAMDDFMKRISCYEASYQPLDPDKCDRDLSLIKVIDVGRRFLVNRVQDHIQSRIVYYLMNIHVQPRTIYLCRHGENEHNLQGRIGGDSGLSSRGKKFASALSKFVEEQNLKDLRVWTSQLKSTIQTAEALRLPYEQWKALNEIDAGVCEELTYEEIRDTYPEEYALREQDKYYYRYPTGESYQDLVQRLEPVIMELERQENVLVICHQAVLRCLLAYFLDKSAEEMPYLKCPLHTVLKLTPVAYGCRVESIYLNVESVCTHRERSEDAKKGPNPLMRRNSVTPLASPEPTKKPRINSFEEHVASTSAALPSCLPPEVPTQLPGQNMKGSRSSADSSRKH

Regarding `NC(=O)c1[nH]nnc1-c1ccc2c(c1)C(=O)N(c1cc(-c3ccc(F)c(F)c3)ccc1C(=O)O)C2` [compound 164, 3-(6-(5-carbamoyl-1H-1,2,3-triazol-4-yl)-1-oxoisoindolin-2-yl)-3′,4′-difluorobiphenyl-4-carboxylic acid], the concentration for half-maximal inhibition (IC50) (as a rule, the point on the concentration scale where inhibition reaches its midpoint) was in the range of 2 to 5 µM.

With `CC(COC(=O)c1ccc(-c2ccc(Cl)cc2Cl)cc1NC(=O)c1cc(O)c(C(=O)O)cc1C(=O)O)N(C)C` (stereo not drawn) [Example 66, 4-[(2′,4′-dichloro-4-{[2-(dimethylamino)propoxy]carbonyl}-[1,1′-biphenyl]-3-yl)carbamoyl]-6-hydroxybenzene-1,3-dicarboxylic acid], the IC50 was < 0.5 µM.

As to `O=C(O)c1ccc2c(c1)C(=O)N(c1cc(-c3cccc(F)c3)ccc1C(=O)O)C2=O` [Example 46], the IC50 is < 0.5 µM.

Take `O=C1c2ccc(-c3c[nH]nn3)cc2C(=O)N1c1ccc(-c2ccccc2)nc1O` [Compound 89, 2-(2-Hydroxy-6-phenylpyridin-3-yl)-5-(1H-[1,2,3]triazol-4-yl)-isoindole-1,3-dione]: the half-inhibitory concentration (IC50) is < 20 µM.

Regarding `Nc1cc(C(=O)O)ccc1C(=O)Nc1cc(-c2ccccc2)ccc1C(=O)O` [Example 4, 3-(2-amino-4-carboxybenzamido)-[1,1′-biphenyl]-4-carboxylic acid], the IC50 was < 20 µM.

Consider `COc1ccc(-c2c(C)sc(N3C(=O)c4ccc(C(=O)NS(=O)(=O)c5ccccc5)cc4C3=O)c2C#N)cc1` [Example 13, N-{2-[3-Cyano-4-(4-methoxyphenyl)-5-methylthiophen-2-yl]-1,3-dioxo-2,3-dihydro-1H-isoindole-5-carbonyl}-benzenesulfonamide], for which the IC50 lay in the range of 5 to 20 µM.

On to `COc1ccc(-c2nnn[nH]2)c(N2C(=O)c3ccc(C(=O)O)cc3C2=O)c1` [Example 47, 2-[5-Methoxy-2-(1H-tetrazol-5-yl)phenyl]-1,3-dioxo-2,3-dihydro-1H-isoindole-5-carboxylic acid], for which the concentration for half-maximal inhibition (IC50) lay within 0.5 to 2 µM.

Regarding `CC(C)(C)C(=O)OCn1cc(-c2ccc3c(c2)C(=O)N(c2ccc(-c4ccccc4)cc2C(=O)O)C3=O)nn1` [Example 30], the 50% inhibitory concentration (IC50) was 2 to 5 µM.

As to `O=C(O)c1ccc(-c2cccs2)cc1N1C(=O)c2ccc(-c3c[nH]nn3)cc2C1=O` [Example 56], the IC50 was 2 to 5 µM.

As for `Nc1ccc(-c2ccc(N3C(=O)c4ccc(-c5c[nH]nn5)cc4C3=O)c(C(=O)O)c2)cn1` [Example 65], the IC50 was in the range of 2 to 5 µM.

With `COc1cc(N2C(=O)c3ccc(C(=O)O)cc3C2=O)ccc1-c1ccccc1` [Example 1], the half-maximal inhibitory concentration (IC50) lay in the range of 5 to 20 µM.

Regarding `COC(=O)c1ccc(-c2ccccc2)cc1N1C(=O)c2ccc(C(=O)NS(C)(=O)=O)cc2C1=O` [Example 41], the half-inhibitory concentration (IC50) was < 20 µM.

For `NC(=O)c1ccc(-c2ccccc2)cc1N1C(=O)c2ccc(-c3nnn[nH]3)cc2C1=O` [Compound 98, 3-[1,3-Dioxo-5-(1H-tetrazol-5-yl)-1,3-dihydroisoindol-2-yl]biphenyl-4-carboxylic acid amide], the IC50 lay in the range of 2 to 5 µM.

`CN(C)CCCOC(=O)c1ccc(-c2ccc(Cl)cc2Cl)cc1NC(=O)c1cc(C(=O)O)c(O)cc1C(=O)O` [Example 54, 2-[(2′,4′-dichloro-4-{[3-(dimethylamino)propoxy]carbonyl}-[1,1′-biphenyl]-3-yl)carbamoyl]-5-hydroxybenzene-1,4-dicarboxylic acid]: the IC50 is < 0.5 µM.

With `O=C(O)c1ccc(-c2ccc(F)c(F)c2)cc1NC(=O)c1ccc(-c2cnn[nH]2)cc1C(=O)O` [Example 22, 3-[2-carboxy-4-(1H-1,2,3-triazol-5-yl)benzamido]-3′,4′-difluoro-[1,1′-biphenyl]-4-carboxylic acid], the IC50 is < 0.5 µM.

Take `O=C(O)c1cc(-c2cnn[nH]2)c(Cl)cc1NC(=O)c1cc(-c2ccc(F)c(F)c2)ccc1C(=O)O` [Example 19, 3-((2-carboxy-5-chloro-4-(1H-1,2,3-triazol-5-yl)phenyl)carbamoyl)-3′,4′-difluoro-[1,1′-biphenyl]-4-carboxylic acid]: the half-maximal inhibitory concentration (IC50) is < 0.5 µM.

Take `CN(C)CCOC(=O)c1ccc(-c2ccc(F)c(F)c2)cc1N1Cc2ccc(C(=O)NS(C)(=O)=O)cc2C1=O` [Compound 108, 3′,4′-Difluoro-3-(6-methanesulfonylaminocarbonyl-1-oxo-1,3-dihydroisoindol-2-yl)biphenyl-4-carboxylic acid 2-dimethylamino-ethyl ester]: the concentration for half-maximal inhibition (IC50) was < 20 µM.

`NS(=O)(=O)c1ccc(-c2ccccc2)cc1N1C(=O)c2ccc(-c3c[nH]nn3)cc2C1=O` [compound 148, 3-(1,3-dioxo-5-(1H-1,2,3-triazol-4-yl)isoindolin-2-yl)biphenyl-4-sulfonamide]: the IC50 was < 20 µM.

As for `O=C(O)c1ccc(-c2ccc(F)c(F)c2)cc1N1Cc2ccc(-c3nn[nH]c3CO)cc2C1=O` [compound 161, 3′,4′-difluoro-3-(6-(5-(hydroxymethyl)-1H-1,2,3-triazol-4-yl)-1-oxoisoindolin-2-yl)biphenyl-4-carboxylic acid], the IC50 lay within 5 to 20 µM.

Regarding `O=C(O)c1ccc2c(c1)C(=O)N(c1cc(-c3cc(F)c(F)cc3F)ccc1C(=O)O)C2=O` [Compound 140, 2-(4-Carboxy-2′,4′,5′-trifluoro[1,1′-biphenyl]-3-yl)-1,3-dioxo-2,3-dihydro-1H-isoindole-5-carboxylic Acid], the IC50 was < 0.5 µM.

As for `CS(=O)(=O)NC(=O)c1ccc2c(c1)C(=O)N(c1cc(-c3ccccc3)ccc1C(=O)O)C2` [Compound 104, 3-(6-Methanesulfonylaminocarbonyl-1-oxo-1,3-dihydroisoindol-2-yl)biphenyl-4-carboxylic Acid], the half-maximal inhibitory concentration (IC50) is < 0.5 µM.

Regarding `CCOC(=O)c1ccc(-c2ccc(F)c(F)c2)cc1N1Cc2ccc(CO)cc2C1=O` [compound 159, ethyl 3′,4′-difluoro-3-(6-(hydroxymethyl)-1-oxoisoindolin-2-yl)biphenyl-4-carboxylate], the IC50 was < 20 µM.

For `NC(=O)c1ccc(-c2ccccc2)cc1N1C(=O)c2ccc(-c3c[nH]nn3)cc2C1=O` [Compound 93, 3-[1,3-Dioxo-5-(1H-[1,2,3]triazol-4-yl)-1,3-dihydroisoindol-2-yl]biphenyl-4-carboxylic acid amide], the IC50 fell in the range of 5 to 20 µM.

Consider `COC(=O)c1ccc(-c2ccc(F)c(F)c2)cc1N1Cc2ccc(C(=O)NS(C)(=O)=O)cc2C1=O` [Compound 105, 3′,4′-Difluoro-3-(6-methanesulfonylaminocarbonyl-1-oxo-1,3-dihydroisoindol-2-yl)biphenyl-4-carboxylic acid methyl ester], for which the IC50 is < 20 µM.

As to `COc1ccc(-c2ccc(C(=O)O)c(N3C(=O)c4ccc(C(=O)O)cc4C3=O)c2)cc1F` [Compound 144, 2-(4-Carboxy-3′-fluoro-4′-methoxy[1,1′-biphenyl]-3-yl)-1,3-dioxo-2,3-dihydro-1H-isoindole-5-carboxylic acid], the IC50 is < 0.5 µM.

For `CC1(C)CCN(c2ccc(C(=O)O)c(NC(=O)c3cc(C(=O)O)c(O)cc3C(=O)O)c2)CC1` [Example 56, 2-{[2-carboxy-5-(4,4-dimethylpiperidin-1-yl)phenyl]carbamoyl}-5-hydroxybenzene-1,4-dicarboxylic acid], the IC50 was < 0.5 µM.

As for `O=C(O)c1cc(C(=O)O)c(C(=O)Nc2cc(-c3ccc(F)c(F)c3)ccc2C(=O)O)cc1Cl` [Example 45, 4-({4-carboxy-3′,4′-difluoro-[1,1′-biphenyl]-3-yl}carbamoyl)-6-chlorobenzene-1,3-dicarboxylic acid], the half-maximal inhibitory concentration (IC50) is < 0.5 µM.
